# Data: PubChem BioAssay AID743090 (Broad Institute, 2013)
# Calls of active or inactive are those of the source.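 How the source made its calls: active means IC50 below 10 µM in A549 cells, with the call taken as the median across tests; inactive means IC50 above 10 µM in A549 cells.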
# Tested on: A549 viability, CellTiter-Glo luminescence, 48 h
# Test: A549 cell killing, TP53 wild-type line, dose response, selectivity assay for TP53-mutant selective toxicity project, CellTiter-Glo luminescence, dry powder (AID 743090)
row,SMILES,IC50
1,CCN(CC)c1ccc(C2=NNC(=O)CC2C)cc1 (stereo not drawn),> 10 µM (inactive)
2,C[C@@H]1CC(=O)NN=C1c1ccc(-c2cncnc2)cc1,> 10 µM (inactive)
3,CCN(CC)c1ccc(C2=NNC(=O)C2(C)C)cc1,> 10 µM (inactive)
4,CCN(CC)c1ccc(C2=NNC(=O)CC2C)cc1NC(C)=O (stereo not drawn),> 10 µM (inactive)
5,C[C@@H]1CC(=O)NN=C1c1ccc(Cl)cc1,> 10 µM (inactive)
6,C[C@@H]1CC(=O)NN=C1c1ccc(C2=CCCCC2)cc1,> 10 µM (inactive)
7,C[C@@H]1CC(=O)NN=C1c1ccc(N2CCOCC2)c(F)c1,> 10 µM (inactive)
8,CC(=O)Nc1ccc(C2=NNC(=O)CC2C)cc1 (stereo not drawn),> 10 µM (inactive)
9,C[C@@H]1CC(=O)NN=C1c1ccc(N)c([N+](=O)[O-])c1,> 10 µM (inactive)
10,C[C@@H]1CC(=O)NN=C1c1ccc(C2CCCCC2)cc1,> 10 µM (inactive)
11,CC(=O)N1CCN(c2ccc(C3=NNC(=O)CC3C)cc2F)CC1 (stereo not drawn),> 10 µM (inactive)
12,CC1CC(=O)N(c2ccccc2)N=C1c1ccc(Cl)cc1 (stereo not drawn),> 10 µM (inactive)
13,CCN1N=C(c2ccc(N(CC)CC)cc2)[C@H](C)CC1=O,> 10 µM (inactive)
14,CC(=O)Nc1ccc(C2=NNC(=O)C[C@H]2C)cc1,> 10 µM (inactive)
15,CCN(CC)c1ccc(C2=NNC(=O)CC2C)cc1NCCOCCOCCNC(=O)OC(C)(C)C (stereo not drawn),> 10 µM (inactive)
16,C#Cc1cc(C2=NNC(=O)C[C@H]2C)ccc1NC(C)=O,> 10 µM (inactive)
17,C[C@@H]1CC(=O)NN=C1c1ccc(F)cc1 (racemic),> 10 µM (inactive)
18,CC1(C)C(=O)NN=C1c1ccc(N)cc1,> 10 µM (inactive)
19,O=C1CC(c2ccccc2)=NN1,> 10 µM (inactive)
20,C[C@@H]1CC(=O)NN=C1c1ccc(N2CCN(C)CC2)cc1,> 10 µM (inactive)
21,C[C@@H]1CC(=O)NN=C1c1ccc(I)cc1,> 10 µM (inactive)

row,SMILES,IC50
1,Cc1cc(=O)[nH]nc1-c1ccc(N)cc1,> 10 µM (inactive)
2,C[C@@H]1CC(=O)NN=C1c1ccc(N2CCOCC2)cc1 (racemic),> 10 µM (inactive)
3,C[C@@H]1CC(=O)NN=C1c1ccc(N2CCOCC2)cc1,> 10 µM (inactive)
4,CC(=O)Nc1ccc(C2=NNC(=O)C[C@H]2C)cc1Br,> 10 µM (inactive)
5,C[C@H]1CC(=O)NN=C1c1ccc(N2CCOCC2)c(F)c1,> 10 µM (inactive)
6,CC1C(=O)NN=C1c1ccc([N+](=O)[O-])cc1 (stereo not drawn),> 10 µM (inactive)
7,CC1(C)C(=O)NN=C1c1ccc(Cl)cc1,> 10 µM (inactive)
8,CC(=O)Nc1ccc(C2=NNC(=O)C[C@H]2C)cc1N,> 10 µM (inactive)
9,CC1(C)C(=O)NN=C1c1ccc([N+](=O)[O-])cc1,> 10 µM (inactive)
10,CCNc1ccc(C2=NNC(=O)C[C@H]2C)cc1,> 10 µM (inactive)
11,CC(=O)Nc1ccc(-c2n[nH]c(=O)cc2C)cc1,> 10 µM (inactive)
12,CCN(CC)c1ccc(-c2nc(C(C)C)no2)cc1[N+](=O)[O-],> 10 µM (inactive)
13,CCCc1ccc(C2=NNC(=O)C[C@H]2C)cc1,> 10 µM (inactive)
14,CCN(CC)c1ccc(C2=NNC(=O)C[C@H]2C)cc1[N+](=O)[O-],> 10 µM (inactive)
15,CC1(C)C(=O)NN=C1c1ccc(N2CCOCC2)cc1,> 10 µM (inactive)
16,CCN(CC)c1ccc(C(=O)Nc2ccccc2)cc1[N+](=O)[O-],> 10 µM (inactive)
17,C[C@@H]1CC(=O)NN=C1c1ccc(F)c(F)c1,> 10 µM (inactive)
18,CCN(CC)c1ccc(C2=NNC(=O)CC2C)cc1[N+](=O)[O-] (stereo not drawn),> 10 µM (inactive)
19,Cc1nc2ccc(C3=NNC(=O)C[C@H]3C)cc2[nH]1,> 10 µM (inactive)
20,CCN(CC)c1ccc(C2=NNC(=O)C[C@H]2C)cc1,> 10 µM (inactive)
21,CC1CC(=O)NN=C1c1ccc(N2CCN(C(=O)Cc3ccc(Cl)cc3Cl)CC2)cc1 (stereo not drawn),> 10 µM (inactive)

row,SMILES,IC50
1,CCNc1ccc(C2=NNC(=O)C[C@H]2C)cc1[N+](=O)[O-],> 10 µM (inactive)
2,C/C=C/c1ccc(C2=NNC(=O)C[C@H]2C)cc1,> 10 µM (inactive)
3,C[C@@H]1CC(=O)NN=C1c1ccc(N2CCCCC2=O)cc1,> 10 µM (inactive)
4,C[C@H]1CC(=O)NN=C1c1ccc(F)c(F)c1,> 10 µM (inactive)
5,CC(=O)Nc1ccc(C2=NNC(=O)C[C@H]2C)cc1C(C)=O,> 10 µM (inactive)
6,CCN(CC)c1ccc(C2=NNC(=O)CC2C)cc1N (stereo not drawn),> 10 µM (inactive)
7,Cc1ccc(CCC(=O)N2CCN(c3ccc(C4=NNC(=O)CC4C)cc3)CC2)cc1 (stereo not drawn),> 10 µM (inactive)
8,CCN(CC)c1ccc(-c2n[nH]c(=O)cc2C)cc1,> 10 µM (inactive)
9,C[C@@H]1CC(=O)NN=C1c1ccc(N2CCCCC2)cc1,> 10 µM (inactive)
10,C[C@@H]1CC(=O)NN=C1c1ccc(-n2cnnc2)cc1,> 10 µM (inactive)
11,CC1CC(=O)NN=C1c1ccc(F)c(F)c1 (stereo not drawn),> 10 µM (inactive)
12,C[C@@H]1CC(=O)NN=C1c1ccc([Si](C)(C)C)cc1,> 10 µM (inactive)
13,C[C@@H]1CC(=O)NN=C1c1ccccc1,> 10 µM (inactive)
14,C[C@@H]1CC(=O)NN=C1c1ccc(N2CCCC2=O)cc1,> 10 µM (inactive)
15,C[C@@H]1CC(=O)NN=C1c1ccc(N2CCCOC2=O)cc1,> 10 µM (inactive)
16,C[C@@H]1CC(=O)NN=C1c1ccc(N2CCCCS2(=O)=O)cc1,> 10 µM (inactive)
17,CC(=O)Nc1ccc(C2=NNC(=O)C[C@H]2C)cc1[N+](=O)[O-],> 10 µM (inactive)
18,C[C@@H]1CC(=O)NN=C1c1ccc(N)c(Br)c1,> 10 µM (inactive)
19,CC1CC(=O)NN=C1c1cccs1 (stereo not drawn),> 10 µM (inactive)
20,CC1CC(=O)NN=C1c1ccc(N2CCOCC2)c(F)c1 (stereo not drawn),> 10 µM (inactive)
21,O=C1C[C@H]2CCc3cc(N4CCOCC4)ccc3C2=NN1 (racemic),> 10 µM (inactive)
